Measurements: US20250275944A1, “RELATIVE UNDERSUPPLY OF AN AMYLOID BETA AGGREGATION INHIBITOR FOR IMPROVED DETOXIFYING EFFECTS” (Galimedix Therapeutics Inc, priority 2022, published 2025)
“Also recorded” adds a separate entry of the source. Each block holds one compound with its values, some of them ahead of it. Non-standard residues stand in square brackets, D forms with d. Residues, ends and D or L forms follow the SMILES beside them. Aib = CC(C)(N)C(=O)O

Experiments:
amyloid beta Aβ1-42 = amyloid beta Aβ1-42 (Homo sapiens, UniProt P05067); settings: read-out: binding affinity to amyloid beta Aβ1-42; cited from earlier work
Aβ1-42 monomers = biological target: T1, Aβ1-42 monomers (Homo sapiens, UniProt P05067); experiment: Surface Plasmon Resonance (SPR) binding of compound (1) to immobilized Aβ1-42 monomers (Biacore X100)
T1 construct: purchased American Peptide Company, Sunnyvale, CA, USA; host or cells: synthetic peptide
Description: FIG. 1 Represents a graphical illustration of compound (1)'s target affinity to amyloid beta Aβ1-42 monomers using Surface Plasmon Resonance (SPR). Synthetic Aβ1-42 was used for this binding assay performed with a Biacore X100 biosensor instrument equipped with two flow cells. Aβ1-42 was covalently coupled to one flow cell of CM7 sensor chips using an amine coupling kit. HBS-EP was used as assay running buffer. The analyte compound (1) was injected over the sensor chip in concentrations ranging from 0.3 nM up to 1000 nM at a flow rate of 10 μL/min for 180 sec at 25° C. […]
The aim of this experiment was to evaluate the target affinity of compound (1) to misfolded Aβ1-42 monomers. The affinity was determined using in vitro Surface Plasmon Resonance (SPR) technology. […]
The resonance units (RUs) elicited by the compound injected into the ethanolamine control flow cell was set as reference response and subtracted from the RUs elicited by the same compound injected to the Aβ saturated flow cell. […] The dissociation equilibrium constant KD of the analyte to the immobilized Aβ was determined from the steady-state levels estimating the maximum RU Rmax and calculating the KD as the concentration of the compound that elicited one-half of the Rmax.

[1] = Pharmacokinetics in the rat brain: microdialysis of brain interstitial fluid (prefrontal cortex), HPLC-MS/MS; assay type: in vivo
Description: FIG. 2 Represents a graphical illustration of compound (1)'s pharmacokinetics in the rat brain. Compound (1) was administered as subcutaneous (s.c.) injection at doses of 0.4 mg/kg (∇) and […] (O, Δ). A microdialysis probe has been placed in the prefrontal cortex of these adult male Sprague Dawley rats to measure the concentration of compound (1) in the brain interstitial fluid (ISF) using a HPLC system with MS/MS detector. The dialysate samples were collected at a flow rate of 0.10 μL/min with a carrier flow rate of 0.8 μL/min. The animals were either anesthetized or awake and freely moving. Microdialysis data over a period of 360 min are depicted on a linear scale as means of 4 measurements±SEM.
The aim of this experiment was to evaluate the pharmacokinetics of compound (1) in the rat brain. Compound (1) was administered subcutaneously to anesthetized or awake and freely moving animals. A microdialysis probe has been placed in the prefrontal cortex of these adult male Sprague Dawley rats to measure the concentration of compound (1) in the brain interstitial fluid (ISF) using a HPLC system with MS/MS detector.

Aβ1-42 oligomers = biological target: T2, Aβ1-42 oligomers (Homo sapiens, UniProt P05067); experiment: In vitro LTP in hippocampal brain slices superfused with 50 nM Aβ1-42; design: species or system mice; settings: for effect on Aβ1-42 toxicity in in vitro LTP: 50 nM Aβ1-42; for Relative effect size (blocking Aβ1-42 toxicity): control LTP = 100%, Aβ1-42 alone = 0%
T2 construct: host or cells: peptide added to the superfusion solution of hippocampal slices
Description: FIGS. 4A-B. FIG. 4A Illustrates plots from in vitro LTP experiments using rat brain slices that were superfused at 23° C. with 50 nM Aβ1-42 and/or with 10 nM compound (1). The compound (1) solution was added for 90 min before HFS was delivered in the first input (dark grey circles). […] To ensure the validity of the Aβ1-42-mediated effect, interleaved experiments with Aβ1-42 (50 nM, closed circles, n=12) were additionally performed in separate slices. […] Representative field excitatory postsynaptic potentials ([…]) are shown on top. FIG. 4B Represents a graphical illustration of compound (1)'s dose-dependent effects on in vitro LTP in rat brain slices based on LTP experiments shown in FIG. 4A. Toxic Aβ1-42 oligomers formed from 50 nM amyloid beta Aβ1-42 monomers block the LTP response almost entirely (black column). […] This refutes the previous scientific status, which called for an excess of the detoxifying agent. Data are shown as means of 5 experiments (n=5)±standard deviations. For the long-term potentiation (LTP) experiments brain slices from 2 months old mice were used. Transverse hippocampal slices (350 μm thick) were obtained after decapitation under isoflurane-anesthesia. All slices were placed in a holding chamber for at least 60 min and were then transferred to a super fusing chamber for extracellular recordings. The flow rate of the solution through the chamber was 4 ml/min. […] All experiments were performed at room temperature. Aβ1-42 stock solution in DMSO was added to the bath solution to give a final concentration of 50 nM. Extracellular recordings of field excitatory postsynaptic potentials (fEPSPs) were obtained from the dendritic region of the CA1 region of the hippocampus using glass micropipettes filled with superfusion solution. For all recordings both stimulating electrodes were used to utilize the input specificity of LTP and thereby allow the measurement of an internal control within the same slice. Steady baseline recordings were made for at least 30 minutes before application of tetanic stimuli. For LTP induction, high-frequency stimulation (HFS) conditioning pulses (100 Hz/1 s; 4-5 V) were applied to the Schaffer collateral commissural pathway via two independent inputs. Before inducing LTP, Aβ1-42 has been applied for 90 min. HFS was delivered from one of the electrodes under conditions in the presence of Compound (1) and potentiation of the responses was monitored for at least 60 min after the tetanus. Either Aβ1-42 was then applied via the bath solution for 90 min before attempting to induce LTP in the second input following HFS delivered via the second electrode. Amplified fEPSPs were filtered (3 kHz), digitized (15 kHz), measured and plotted (FIG. 4A). Measurements of the slope of the fEPSP were taken between 20% and 80% of the peak amplitude. Slopes of fEPSPs were normalized with respect to the 20 min control period before tetanic stimulation. Compound (1) was used at various concentrations in these LTP experiments. […] FIG. 4B summarizes the effects of different compound (1) concentrations leading to different stoichiometric Aβ1-42/compound (1) ratios (10:1, 2:1, 1:5). The LTP signals (fEPSP potentiation) calculated as the average of the last 50-60 mins after HFS are presented as a bar diagram. […] The control experiment is defined as 100% normalized LTP response and the toxic effect of 50 nM Aβ1-42 oligomers is defined as 0% normalized LTP change. Using the usual stoichiometric excess for compound (1), namely 500 nM or 100 nM, leads to a weak detoxifying effect of 40.2% and 34.7%, respectively.

oligomeric Aβ1-42 = biological target: T3, oligomeric Aβ1-42 (Homo sapiens, UniProt P05067); experiment: In vivo LTP in anesthetized rats after i.c.v. oligomeric Aβ1-42; design: species or system rat; settings: for PS amplitude 80-90 min after LTP induction: Aβ1-42 alone 138.1±4.1, vehicle 179.2±8.7
T3 construct: Amyloid beta Aβ1-42 has been injected into brain ventricles at a concentration that strongly suppresses LTP; host or cells: peptide solution injected into anesthetized rats
Description: FIG. 3 Represents a graphical illustration of compound (1)'s dose-dependent effects on in vivo LTP in anesthetized rats at very low concentrations. Given are normalized LTP of population spike (PS) amplitude at 80-90 min post theta burst stimulation (TBS). Compound (1) has been administered s.c. at dose of 0.08 mg/kg, 0.4 mg/kg, and 2.0 mg/kg. Amyloid beta Aβ1-42 has been injected into brain ventricles at a concentration that strongly suppresses LTP (black column). […] The aim of this experiment was to evaluate the dose-dependent effects of compound (1) on in vivo LTP in anesthetized rats at very low concentrations. Compound (1) has been administered s.c. at dose of 0.08 mg/kg, 0.4 mg/kg, and 2.0 mg/kg. Amyloid beta Aβ1-42 has been injected into brain ventricles at a concentration that strongly suppresses LTP. […] In animals subject to intracerebroventricular (i.c.v.) injection of 6 μL oligomeric Aβ1-42 solution (1.67 mM) significant deficits in LTP were observed. (FIG. 3). At the end of the recording period, 80-90 min after LTP induction, the PS amplitude following i.c.v. administration of oligomeric Aβ1-42 measured 138.1±4.1% of baseline (n=18), compared to 179.2±8.7% in PBS-injected animals (n=12). In animals subjected to i.c.v injection of 6 μL oligomeric Aβ1-42, 3 different s.c. doses of compound (1), namely 0.08, 0.4 and 2 mg/kg, were administrated before i.c.v. injection of oligomeric Aβ1-42. […] At the end of the recording period, 80-90 min after LTP induction, the PS amplitude following s.c. administration of compound (1) and i.c.v. administration of oligomeric Aβ1-42 measured 170.0±11.9% of baseline (n=7) for the 2 mg/kg dose, 174.7±16.0% of baseline (n=6) for the 0.4 mg/kg dose, and 139.6±13.1% of baseline (n=4) for the 0.08 mg/kg dose, compared to 179.2±8.7% in vehicle-treated controls (n=12) and 138.1±4.1% i.c.v. oligomeric Aβ1-42-injected animals (n=18).

T2 sequence (P05067 672-713 limits assumed): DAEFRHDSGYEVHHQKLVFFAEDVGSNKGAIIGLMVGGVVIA
T3 sequence (P05067 672-713 limits assumed): as above
T1 sequence (P05067 672-713 limits assumed): as above
Sequence of amyloid beta Aβ1-42 (P05067 672-713 limits assumed): as above

SMILES: CC(C)(NC(=O)C(N)Cc1c[nH]c2ccccc12)C(=O)O (stereo not shown) [GAL-101, 2-[2-Amino-3-(1H-indol-3-yl)-propionylamino]-2-methyl-propionic acid]
Kd (amyloid beta Aβ1-42): 28.9 ± 2.9 nM

Kd (Aβ1-42 monomers; SPR steady state, 25° C, HBS-EP, 0.3-1000 nM, n=4, read-out: KD (dissociation constant) at Aβ1-42 monomers): 2.5 ± 0.6 nM | affinity to the target compared to GAL-101 (fold stronger) (Aβ1-42 monomers; compound (1) vs GAL-101): 4 fold | peak brain concentration (extracellular space of the brain) ([1]; s.c. 0.4 mg/kg): 10 nM | brain concentration (brain ISF) ([1]; s.c. 2 mg/kg): ca. 60 nM | LTP induction in presence of compound alone (Aβ1-42 oligomers; 10 nM compound (1), 90 min before HFS, no Aβ1-42): allowed the induction of LTP | effect on Aβ1-42-suppressed in vivo LTP (oligomeric Aβ1-42; 0.08 mg/kg s.c.): loss of the pharmacological effect | PS amplitude 80-90 min after LTP induction (oligomeric Aβ1-42; 0.08 mg/kg s.c. + i.c.v. oligomeric Aβ1-42, n=4): 139.6±13.1 % of baseline | PS amplitude 80-90 min after LTP induction (oligomeric Aβ1-42; 0.4 mg/kg s.c. + i.c.v. oligomeric Aβ1-42, n=6): 174.7±16.0 % of baseline | PS amplitude 80-90 min after LTP induction (oligomeric Aβ1-42; 2 mg/kg s.c. + i.c.v. oligomeric Aβ1-42, n=7): 170.0±11.9 % of baseline
SMILES: CC(C)(NC(=O)[C@H](N)Cc1c[nH]c2ccccc12)C(N)=O [compound (1), (2R)-2-amino-N-(1-carbamomyl-1-methlyethyl)-3-(1H-indol-3-yl) propanamide] (H-[dW]-[Aib]-NH2)
effect on Aβ1-42 toxicity in in vitro LTP (Aβ1-42 oligomers; 10 nM compound (1)): best prevented the detrimental effect of 50 nM Aβ1-42 on hippocampal LTP; also recorded: able to prevent LTP blockade; also recorded: blocks Aβ1-42 toxicity almost completely | Relative effect size (blocking Aβ1-42 toxicity) (Aβ1-42 oligomers; 10 nM compound (1), 50 nM Aβ1-42, ratio 1:5): 88.1% | effect on Aβ1-42 toxicity in in vitro LTP (Aβ1-42 oligomers; 100 nM compound (1)): only partially alleviate the toxic effect of Aβ1-42 | Relative effect size (blocking Aβ1-42 toxicity) (Aβ1-42 oligomers; 100 nM compound (1), 50 nM Aβ1-42, ratio 2:1): 34.7% | Relative effect size (blocking Aβ1-42 toxicity) (Aβ1-42 oligomers; 100 nM compound (1), 50 nM Aβ1-42, ratio 2:1, listed as Compound (1)): 34.7% | effect on Aβ1-42 toxicity in in vitro LTP (Aβ1-42 oligomers; 500 nM compound (1)): only partially alleviate the toxic effect of Aβ1-42 | Relative effect size (blocking Aβ1-42 toxicity) (Aβ1-42 oligomers; 500 nM compound (1), 50 nM Aβ1-42, ratio 10:1): 40.2% | Relative effect size (blocking Aβ1-42 toxicity) (Aβ1-42 oligomers; 500 nM compound (1), 50 nM Aβ1-42, ratio 10:1, listed as Compound (1)): 40.2% | detoxifying effect in undersupply compared to stoichiometric excess (Aβ1-42 oligomers; 10-fold undersupply (ratio 1:10) as worded, refers to Table 1): more than double as strong | molecules of Aβ1-42 detoxified by 1 molecule of compound (1) (Aβ1-42 oligomers; efficacy at 10 nM vs 50 nM Aβ1-42): 5 | effect on Aβ1-42-suppressed in vivo LTP (oligomeric Aβ1-42; 0.4 mg/kg s.c.): at least as potent efficacy on LTP; also recorded: fully restored LTP signal; also recorded: brought post-TBS responses towards those observed in control animals | effect on Aβ1-42-suppressed in vivo LTP (oligomeric Aβ1-42; 2 mg/kg s.c.): brought post-TBS responses towards those observed in control animals; also recorded: normalizes the LTP signal
